Experimental data: PMC1851987, “Identification of the Endogenous Key Substrates of the Human Organic Cation Transporter OCT2 and Their Implication in Function of Dopaminergic Neurons” (PLoS ONE, 2007)

What was measured:
[1] = test system: HEK-293 cells expressing OCT2; test: MTT reduction cell viability assay, OCT2 (wild-type 400R) transfected HEK-293 cells; type: cell-based, human; settings: cyclo(his-pro) 10 µmol/l, 12 h prior to salsolinol treatment
Experimental: (§1) Cell viability was assessed in HEK-293 cells, human dopaminergic neuroblastoma cells (SH-SY5Y) and human glioblastoma cells (HTZ-146) by the MTT test as described.[22] […] For indication of metabolic activity, cells were treated with MTT reagent (15 µl of 1 mg/ml stock solution per well) for 1 h, and after drying of culture plates for 1 h at 37°C, the resulting formazan dye was extracted with isopropanol/HCl (100 µl 0.04 mol/l per well) and absorbance was determined spectrophotometrically at 568 nm.

HTZ-146 cells = test: MTT reduction cell viability assay, HTZ-146 cells; type: cell-based, human
Experimental: as §1, with “nm. Results were in agreement with the data obtained by the tryptan blue exclusion method (data not shown).” for “nm.”

[2] = weak bases; cited from earlier work
[3] = molecular target: T1, organic cation transporter OCT2 (wild-type 400R) (Homo sapiens, UniProt O15244, S270A); test: Specific uptake into OCT2 (wild-type) transfected HEK-293 cells vs empty vector, LC-MS-MS; settings: for influx clearance Clin: specific uptake after incubation with 10 µmol/l, mean (s.e.m.), n = 3
T1 sequence (O15244 1-555 S270A): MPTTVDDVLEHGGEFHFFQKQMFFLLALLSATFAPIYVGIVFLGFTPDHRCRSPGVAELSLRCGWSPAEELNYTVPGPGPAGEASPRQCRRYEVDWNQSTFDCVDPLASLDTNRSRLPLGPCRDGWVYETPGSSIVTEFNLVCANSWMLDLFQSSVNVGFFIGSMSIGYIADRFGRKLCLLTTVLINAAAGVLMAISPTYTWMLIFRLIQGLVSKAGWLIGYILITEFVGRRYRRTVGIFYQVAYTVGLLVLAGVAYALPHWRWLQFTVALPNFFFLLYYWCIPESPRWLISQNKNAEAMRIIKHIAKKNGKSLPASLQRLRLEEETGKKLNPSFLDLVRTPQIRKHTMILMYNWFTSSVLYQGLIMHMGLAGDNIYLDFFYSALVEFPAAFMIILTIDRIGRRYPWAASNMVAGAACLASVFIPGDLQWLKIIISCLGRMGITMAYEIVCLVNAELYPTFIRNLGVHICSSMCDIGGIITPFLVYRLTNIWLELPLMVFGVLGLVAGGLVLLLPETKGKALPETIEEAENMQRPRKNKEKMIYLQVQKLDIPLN

OCT2 = molecular target: T2, OCT2 (Homo sapiens, UniProt O15244, S270A); test: Substrate search: uptake from fetal bovine serum into OCT2-transfected vs control HEK-293 cells, ESI-LC-MS-MS; settings: 30 min incubation with 100% fetal bovine serum, OCT2 vs HEK-293 cells without OCT2
T2 sequence (O15244 1-555 S270A): T1 sequence (O15244 1-555 S270A)
Experimental: Uptake experiments were conducted in OCT2-transfected human embryonic kidney cells (HEK-293) by incubation with fetal bovine serum. Specific OCT2-mediated uptake of a compound from serum was assessed in comparison to HEK-293 cells without OCT2 expression by running positive electrospray ionization tandem mass spectrometry analysis (ESI-LC-MS-MS).
After termination of uptake by washing with ice-cold HEPES-Krebs buffer and protein precipitation with 4 mmol/l perchloric acid or 100% acetonitrile in the case of brain homogenates, lysates were analyzed by LC-MS-MS operating in product scan positive electrospray ionisation mode (ESI) on a TSQ Quantum triple-quadrupole tandem mass spectrometer equipped with a thermostated (5°C) Surveyor autosampler and a thermostated (30°C) Surveyor HPLC system (Thermo Electron). Spray voltage was set at 4500 V, and capillary temperature was kept at 350°C. Nitrogen sheath gas and auxiliary gas pressure were 40 and 4 psi respectively. The collision gas was argon and collision-induced dissociation (CID) took place at 1.5 mTorr and 25 eV. […] 1-Methyl-4-phenyl-pyridinium iodide (MPP^+, 500 ng/ml) was applied as internal standard (IS) and the m/z 170→128 transition was simultaneously recorded by single reaction monitoring (SRM) at 36 eV collision energy. […]

OCT2 (wild-type 400R) [4] = test: MTT reduction cell viability assay, OCT2 (wild-type 400R) transfected HEK-293 cells; type: cell-based, human; settings: human, HEK-293 cells transfected with OCT2 (wild-type 400R); 48 h exposure, no pretreatment; read-out: EC50 (95% confidence interval), cell viability
Experimental: as §1

OCT1 = test: MTT reduction cell viability assay, OCT1-transfected HEK-293 cells; type: cell-based; settings: human, HEK-293 cells transfected with OCT1; 48 h exposure; read-out: EC50 (95% confidence interval), cell viability
[5] = test system: HEK-293 cells expressing EMT; test: MTT reduction cell viability assay, EMT-transfected HEK-293 cells; type: cell-based; settings: Homo sapiens, HEK293; 48 h exposure; read-out: EC50 (95% confidence interval), cell viability
OCT2 mutant 400C variant = test: MTT reduction cell viability assay, HEK-293 cells expressing OCT2 mutant 400C variant; type: cell-based; settings: human, 48 h exposure after 12 h incubation with cyclo(his-pro) 10 µmol/l, read-out: EC50 (95% confidence interval), cell viability
OCT2 (wild-type 400R) [6] = molecular target: T3, OCT2 (wild-type 400R) (Homo sapiens, UniProt O15244, S270A); test: Specific uptake into OCT2 (wild-type) transfected HEK-293 cells vs empty vector, LC-MS-MS; settings: human, pH 7.4
T3 sequence (O15244 1-555 S270A): T1 sequence (O15244 1-555 S270A)

dependence of specific uptake on pH ([3]; 10 µmol/l, 3 min incubation)	specific uptake from serum, fold above the control (OCT2) [fold]	Structure (SMILES)	effect of pretreatment on salsolinol-induced degeneration [1]	effect on glutamate-induced cytotoxicity (HTZ-146 cells; pre-treated 1 h with 10 µmol/l cyclo(his-pro))	pKS [2]	dependence of specific uptake on extracellular sodium concentration ([3]; 10 µmol/l, 3 min incubation, sodium chloride isoosmotically replaced with lithium chloride)	influx clearance Clin [3]	EC50 at 48 h (OCT2 (wild-type 400R) [4]) [µM]	EC50 at 48 h (OCT1) [µM]	EC50 [5] [µM]	EC50 (HTZ-146 cells; Homo sapiens, 48 h, non-pretreated, read-out: EC50 (95% confidence interval), cell viability) [µM]	EC50 at 48 h (OCT2 mutant 400C variant) [µM]	Km at 1 min (OCT2 (wild-type 400R) [6]) [µM]	N-methylation of intracellular salsolinol (of salsolinol concentration) ([3]; after 60 min of incubation, transfected HEK-293 cells) [%]
pH influenced specific uptake	> 2	O=C1NC(Cc2c[nH]cn2)C(=O)N2CCCC12 (stereo not drawn) [cyclo(his-pro), histidyl-proline diketopiperazine]	prevented degeneration	prevented	6.5–7.5	independent of extracellular sodium concentration	25.0 (4.2) µl/mg/min							
		CC1NCCc2cc(O)c(O)cc21 (stereo not drawn) [salsolinol]					18.5 (2.6) µl/mg/min	192	627	998	138	406	130	≤ 2.5
